Source: publication PMC4158172 (European Journal of Clinical Pharmacology, 2014)
“And” between values parts separate entries of the source, which are not always exact repeats. Identical values can stand only once. Like-named read-outs stand apart in the source and are kept apart here.

What was measured:
CYP3A4 = settings: cited from earlier work
OATP1B3 = tested on: OATP1B3; parameters: method as in PMID 23132334; settings: in vitro; cited from earlier work
[1] = Safety evaluations, interaction study with EFV; type: in vivo, human; settings: healthy subjects n=12
Experimental: In both studies, safety evaluations [adverse event (AE) reporting, clinical chemistry laboratory tests, urinalysis, vital signs and electrocardiogram] were performed throughout the study. Given the known hepatotoxicity profile of TPV/r, more frequent monitoring of liver chemistries was performed in the TPV/r study, and conservative stopping criteria were employed such that any subject reaching a grade 2 increase in alanine aminotransferase (ALT) or aspartate aminotransferase (AST) was discontinued from the trial. Both trials were conducted as inpatient studies with subjects housed in the unit for the duration of the study. The studies were conducted in accordance with the principles of the Declaration of Helsinki. A written informed consent was obtained from all subjects, and both protocols were approved by the institutional review board of the study sites.

CYP isozymes = tested on: CYP isozymes; parameters: method as in PMID 23132334; settings: in vitro; cited from earlier work
[2] = Urinary metabolic profile of DTG (pooled urine); type: in vivo, human; settings: pooled urine 0-24 h, n=12, mean (standard deviation)
Experimental: There was no washout between treatment periods. All doses were administered in the fasting state.
Urine samples were collected at intervals of 0 to 12 hours and 12 to 24 hours after each treatment period. Individual urine pools were produced for each subject in a given treatment group by combining proportional volumes (% of total volume) from the 0- to 12-hours and 12- to 24-hours collections. Individual pooled human plasma samples were prepared for each subject and treatment group.
Each pooled plasma sample was mixed with aqueous EDTA disodium salt solution (10 mg/mL) and subsequently extracted 3 times with methanol and acetonitrile. Pooled urine samples were lyophilised and the residue was reconstituted in water:methanol (90:10 v/v). Drug-related components in plasma extracts and urine samples were separated on a 100 × 4.6 mm 3.5-micron Symmetry C18 column (Waters Associates) at 40°C by a step-gradient elution method with a mobile phase composition of water:acetonitrile containing 0.1% ammonium acetate starting at 95:5 (v/v) and ending at 5:95 (v/v) over 50 minutes. The eluate was analysed by multistage mass spectrometry (MSn) using an LTQ Orbitrap™ Hybrid Mass Spectrometer with Xcalibur 2.07 software (Thermo Fisher Scientific, Bremen, Germany). Data-dependent scanning using an accurate mass list, consisting of all previously characterised metabolites, was used in addition to analysis of pre-dose samples to aid in the distinction of drug-related material from endogenous components.

[3] = DTG steady-state plasma pharmacokinetics, interaction with TPV/r
Experimental: Two studies were conducted in healthy volunteer subjects as judged by physical exam, medical history and laboratory testing. These studies are registered with ClinicalTrials.gov (NCT01068925; protocol number ING113096 and NCT01098526; protocol number ING114005). Adult men and women of non-childbearing potential were enrolled. Subjects were excluded if they tested positive for HIV or hepatitis C antibodies or hepatitis B surface antigen. Subjects were not allowed to receive any prescription or non-prescription drugs, including vitamins or herbal products, within 7 days of dosing and throughout the study.
This was a phase I, open-label, single-sequence, three-period, steady-state study. Eighteen subjects received DTG 50 mg q24h for 5 days (period 1). […] There was no washout between treatment periods. All doses were administered with a moderate-fat meal.
Dolutegravir and EFV were measured in plasma samples using validated methods, which consisted of extraction from plasma by protein precipitation with acetonitrile containing [^15N^2H7]dolutegravir or [^2H4]-efavirenz as the internal standards, respectively. The plasma extracts were injected onto a 2.1 × 50 mm 3.5-micron XBridge™ C18 column (Waters Associates, Milford, MA, USA). Dolutegravir was eluted with a mobile phase consisting of 40 % acetonitrile in aqueous 0.1 % formic acid, and EFV was eluted with a mobile phase consisting of acetonitrile/0.1 % formic acid (65 % v/v) in a 5-mM ammonium acetate buffer containing 0.1 % acetic acid (35 % v/v). The eluates were detected by using a Sciex API 4000™ (AB Sciex, Framingham, MA, USA) equipped with a TurboIonSpray® ionisation source with multiple reaction monitoring (DTG positive ion mode m/z 420 > 277; internal standard m/z 428 > 277; EFV negative ion mode m/z 314 > 243; internal standard m/z 318 > 247). Data acquisition and processing were performed with Analyst 1.4.2 software (AB Sciex), and linear regression analysis calculations were performed using the Study Management System, SMS™ 2000 v.2.2 (GlaxoSmithKline, Research Triangle Park, NC, USA). The calibration range for DTG was 0.020 to 20 μg/mL and for EFV was 0.10 to 20 μg/mL. Quality control samples prepared separately at three concentrations were stored with study samples and analysed with each batch of samples against separately prepared calibration standards.
A non-compartmental PK analysis of the concentration-time data was performed with WinNonlin (version 5.2, Pharsight Corporation, Mountain View, CA, USA). Plasma PK parameters for both DTG and EFV were calculated using actual recorded times for each treatment. Parameters that were determined included AUC from time zero to the end of the dosage interval (AUC(0–τ)), maximum observed plasma concentration (C max), the time of maximum observed plasma concentration (T max) and plasma concentration at the end of the dosing interval (C τ).
Statistical analyses were performed on the log-transformed PK parameters: AUC(0–τ), C τ and C max. […] Efavirenz PK data were compared with historical data. Subject was fitted as a random effect and treatment was fitted as a fixed effect in the model. The ratio of geometric least-squares means and associated 90 % confidence intervals were estimated for the PK parameters of interest.

BCRP = tested on: BCRP; parameters: method as in PMID 23132334; settings: in vitro; cited from earlier work
MRP2 = tested on: MRP2; parameters: method as in PMID 23132334; settings: in vitro; cited from earlier work
HIV = tested on: HIV; parameters: method as in earlier work; settings: SAILING, cited from earlier work
[4] = both, human, plasma, oral, 50 mg
[5] = co-administration with TPV/r 500/200 mg q12h

- % DTG ([2]; DTG 50 mg + EFV q24h): 100%
- % Total drug-related response ([2]; DTG 50 mg + EFV q24h): 6.2 (5.0) %
- % DTG ([2]; DTG 50 mg q24h): 100%
- % Total drug-related response ([2]; DTG 50 mg q24h): 6.4 (1.8) %
- GLS mean ratio (90 % CI) of AUC(0–τ) ([3]; DTG+TPV/r vs DTG alone, n=14): 0.409 (0.379, 0.443)
- GLS mean ratio (90 % CI) of C max ([3]; DTG+TPV/r vs DTG alone, n=14): 0.535 (0.500, 0.572)
- GLS mean ratio (90 % CI) of C τ ([3]; DTG+TPV/r vs DTG alone, n=14): 0.239 (0.212, 0.270)
- Tmax ([3]; both, human, in vivo, 50 mg): 3 h
- AUC [3, 4]: 64500 ng·h/mL
- Cmax [3, 4]: 4530 ng/mL
- concentration at 24 h [3, 4]: 1480 ng/mL
- decrease in plasma DTG AUC(0–τ) [3, 5]: 59%
- decrease in plasma DTG C max [3, 5]: 46%
- decrease in plasma DTG C τ [3, 5]: 76% and 75%
Structure (SMILES): C[C@@H]1CCO[C@H]2Cn3cc(C(=O)NCc4ccc(F)cc4F)c(=O)c(O)c3C(=O)N12 [DTG, Dolutegravir]
- induction of CYP3A4 (CYP3A4): not an inducer
- direct inhibition of OATP1B3 (OATP1B3): minimal or no direct inhibition
- subjects reporting at least one AE [1]: 17%
- tolerability ([1]; repeat doses): generally well tolerated
- direct inhibition of CYP isozymes (CYP isozymes): minimal or no direct inhibition
- direct inhibition of BCRP (BCRP): minimal or no direct inhibition
- direct inhibition of MRP2 (MRP2): minimal or no direct inhibition
- week 48 Snapshot response rate (HIV; DTG 50 mg once daily with EFV- or TPV/r-containing background regimens, n=16): 56.3%
- week 48 Snapshot response rate (HIV; subjects not on these inducers or inhibitors (atazanavir and atazanavir/ritonavir)): 74.4%
